Results on 5 compounds are retold here after patent publication US6680330B2, “Rapamycin dialdehydes” (Wyeth, priority 2001, dated 2004).

Values after ≈ are worked out from the molar mass of the structure shown.

Format in all cases: cell-based
For test [1], the system named is 3T3/H2N (ovarian—resistant to cis-platin) tumor cell line. Nature of the test: Antineoplastic activity, tumor cell growth inhibition (sulforhodamine B), 3T3/H2N. The conditions noted are these: 3T3/H2N cells, 48 hours. From the text:
(§1) Antineoplastic activity for the compounds of this invention was confirmed by evaluating the antineoplastic activity of representative compounds of this invention (Examples 1-5) against six tumor cell lines in vitro. Briefly, tumor cells from six cell lines were placed in wells of a 96 well microtiter plate. The following tumor cell lines were used: 3T3 (ovarian), 3T3/H2N (ovarian—resistant to cis-platin), A431 (vulva epidermoid origin), SW620 (colon), SKBR3 (breast), and MDA-435 (breast). The tumors cells were grown in the presence of serial dilutions of the compound to be evaluated for 48 hours, and cell growth determined using a colorimetric procedure (sulforhrodamine B). The inhibition of growth was calculated compared to the number of cells at the time of test compound addition.

The subject of test [2] is SKBR3 (breast) tumor cell line. Nature of the test: Antineoplastic activity, tumor cell growth inhibition (sulforhodamine B), SKBR3. To be noted: 48 hours; for Antineoplastic Activity IC50: SKBR3 cells.
Text: as §1

Test [3] has as its system 3T3 (ovarian) tumor cell line. Put plainly: Antineoplastic activity, tumor cell growth inhibition (sulforhodamine B), 3T3. The conditions noted are these: 48 hours; for Antineoplastic Activity IC50: 3T3 cells.
Text: as §1

In test [4] the test system is MDA-435 (breast) tumor cell line. Put plainly: Antineoplastic activity, tumor cell growth inhibition (sulforhodamine B), MDA-435. The conditions noted are these: MDA435 cells, 48 hours.
Text: as §1

Test [5] relates to SW620 (colon) tumor cell line. Put plainly: Antineoplastic activity, tumor cell growth inhibition (sulforhodamine B), SW620. The conditions noted are these: 48 hours; for Antineoplastic Activity IC50: SW620 cells.
Text: as §1

The test system of test [6] is A431 (vulva epidermoid origin) tumor cell line. Nature of the test: Antineoplastic activity, tumor cell growth inhibition (sulforhodamine B), A431. The conditions noted are these: 48 hours; for Antineoplastic Activity IC50: A431 cells.
Text: as §1

The next test has as its system SH-SY5Y cells. Nature of the test: Neurite outgrowth (neuroregeneration) test in SH-SY5Y cells. The conditions noted are these: aphidicolin 5 days, mean ± SEM. From the text:
The neuroregeneration activity for the compounds of this invention was confirmed in a standard pharmacological test procedure by evaluating rapamycin dialdehyde (Example 1) and rapamycin 29-enol (Example 2), as representative compounds of this invention, against SH-SY5Y cells in vitro [Gold et al., Exp Neurol 147: 269-278, 1997]. Briefly, SH-SY5Y cells were placed in 6-well plate treated with aphidicolin for 5 days followed by the test compounds using 6-well plates. For controls, wells were untreated, or treated with nerve growth factor (NGF) alone. Test wells were treated with NGF plus Example 1 and Example 2, or rapamycin. Cells were photographed at 168 hours. Analysis of neuritic lengths was performed on photographic prints using a Houston Instrument HI-PAD digitizing tablet connected to an IBM XT computer with appropriate software (Bioquant IV, R&M Biometrics, Nashville, Tenn.). Mean values for axonal areas were compared using by ANOVA (STATVIEW, Abacus Concepts, Inc., Berkeley, Calif.). The following table summarizes the results that were obtained.

“42-O-(2-Hydroxy)Ethyl Rapamycin 29-enol [Example V]”: the “Antineoplastic Activity IC50” value was 4.96 µg/mL in test [1]; 2.69 µg/mL in test [2]; greater than 5 µg/mL in test [3]; greater than 5 µg/mL in test [4]; greater than 5 µg/mL in test [5]; greater than 5 µg/mL in test [6].
As for “NGF: nerve growth factor, used alone as control and together with test compounds”, in the test on SH-SY5Y cells (NGF alone), the “Mean Neurite Length after 168 h” value was 196.5 ± 7.7 (n = 112) μm.
Consider `CO[C@@H](C[C@@H]1CC[C@@H](C)[C@](O)(C(=O)C(=O)N2CCCC[C@H]2C(=O)OC(CC(=O)[C@H](C)/C=C(\C)[C@@H](O)[C@@H](OC)C(=O)[C@H](C)C[C@H](C)/C=C/C=O)[C@H](C)C[C@@H]2CC[C@@H](O)[C@H](OC)C2)O1)/C(C)=C/C=O` (stereo partly drawn) [Example I, Rapamycin Dialdehyde], for which the IC50 (commonly the concentration at which inhibition is half-maximal) in test [1] amounted to 0.68 µg/mL (≈ 0.719 µM); in test [2] (Homo sapiens, SK-BR-3, SKBR3 cells) it was 0.52 µg/mL (≈ 0.55 µM); in test [3] (Mus musculus, NIH3T3, 3T3 cells) it was 0.72 µg/mL (≈ 0.761 µM); in test [4], 1.23 µg/mL (≈ 1.3 µM); in test [5] (Homo sapiens, SW-620, SW620 cells), 1.41 µg/mL (≈ 1.49 µM); in test [6] (Homo sapiens, A-431, A431 cells), 0.91 µg/mL (≈ 0.962 µM). In addition, the “Mean Neurite Length after 168 h” value in the test with SH-SY5Y cells (test compound plus NGF) is given as 229.8 ± 9.5 (n = 141) μm.
With “42-O-(2-Hydroxy)Ethyl Rapamycin Dialdehyde [IV]”, the “Antineoplastic Activity IC50” value in test [1] was 0.72 µg/mL; in test [2], 0.36 µg/mL; in test [3] it was 1.5 µg/mL; in test [4] it was 1.1 µg/mL; in test [5], 3.04 µg/mL; in test [6], 2.64 µg/mL.
Turning to Rapamycin 29-Enol [Example II], the “Antineoplastic Activity IC50” value in test [1], in test [2], in test [3], in test [4], in test [5] and in test [6] was greater than 5 µg/mL throughout. For the same compound, the “Mean Neurite Length after 168 h” value in the test on SH-SY5Y cells (test compound plus NGF) is 239.7 ± 10.0 (n = 155) μm.
